Experimental data published in ChEMBL document CHEMBL5257061, “Structural Study of Potent Triazole-Based Inhibitors of Staphylococcus aureus Biotin Protein Ligase” (ACS Med Chem Lett, 2023).
Converted amounts (≈) assume the structure as drawn.

Key:
[1] = Inhibition of recombinant Staphylococcus aureus C-terminal hexahistidine tagged Biotin protein ligase expressed in Escherichia coli BL21 (DE3) assessed as inhibition constant incubated for 30 mins by [3H]-Biotin incorporation based radioactivity based assay
[2] = Inhibition of recombinant Staphylococcus aureus C-terminal hexahistidine tagged Biotin protein ligase expressed in Escherichia coli BL21 (DE3) assessed as inhibition constant incubated for 10 mins in presence of ATP by [3H]-Biotin incorporation based liquid scintillation counting analysis
[3] = Inhibition of Staphylococcus aureus Biotin protein ligase assessed as inhibition constant
Staphylococcus aureus [4] = assay: Antibacterial activity against Staphylococcus aureus ATCC 49775 assessed as inhibition of bacterial growth; type: functional
[5] = Inhibition of Staphylococcus aureus Biotin protein ligase assessed as inhibition constant by biotinylation assay
Staphylococcus aureus [6] = assay: Antibacterial activity against Staphylococcus aureus ATCC 49775 assessed as inhibition of bacterial growth incubated for 16 to 20 hrs by CLSI protocol based two-fold serial dilution method; type: functional; details: time 16-20 hrs

| Compound | MIC (Staphylococcus aureus [6]) [µg/mL] | Ki [5] [nM] | further results |
| --- | --- | --- | --- |
| Nc1ncnc2c1ncn2[C@@H]1O[C@H](COP(=O)(O)OCCCCC[C@@H]2SC[C@@H]3NC(=O)N[C@@H]32)[C@@H](O)[C@H]1O |  |  | Ki [1]: 30 nM |
| Cc1ccc2oc(=O)n(CCCCn3cc(CCCCC[C@@H]4SC[C@@H]5NC(=O)N[C@@H]54)nn3)c2c1 |  |  | Ki [2]: 230 nM |
| O=C1N[C@H]2[C@H](CS[C@H]2CCCCCc2cn(Cc3cccc(F)c3)nn2)N1 |  |  | Ki [2]: 670 nM |
| O=C1N[C@H]2[C@H](CS[C@H]2CCCCCc2cn(Cc3ccc(C(=O)O)cc3)nn2)N1 |  |  | Ki [2]: 280 nM |
| Nc1cc(CNC(=O)c2ccc(C(c3cccc(F)c3)n3cc(CCCCC[C@@H]4SC[C@@H]5NC(=O)N[C@@H]54)nn3)cc2)ccn1 (some centres not stated) |  |  | Ki [3]: 8.43 nM; MIC (Staphylococcus aureus [4]): 8 µg/mL (≈ 13 µM) |
| NCCCNC(=O)c1ccc(C(c2cccc(F)c2)n2nnc(CCCCC[C@@H]3SC[C@@H]4NC(=O)N[C@@H]43)c2F)cc1 (some centres not stated) | > 64 | 268 |  |
| Cc1ccc2oc(=O)n(CCCCn3nnc(CCCCC[C@@H]4SC[C@@H]5NC(=O)N[C@@H]54)c3F)c2c1 |  |  | Ki [2]: 420 nM |
| Nc1ncnc2c1ncn2[C@@H]1O[C@H](Cn2cc(CCCCC[C@@H]3SC[C@@H]4NC(=O)N[C@@H]43)nn2)[C@@H](O)[C@H]1O |  |  | Ki [1]: 1170 nM |
| NCCCNC(=O)c1ccc(C(c2cccc(F)c2)n2cc(CCCCC[C@@H]3SC[C@@H]4NC(=O)N[C@@H]43)nn2)cc1 (some centres not stated) | 8 (≈ 14.1 µM) | 30 |  |
| Nc1cc(CNC(=O)c2ccc(C(c3cccc(F)c3)n3nnc(CCCCC[C@@H]4SC[C@@H]5NC(=O)N[C@@H]54)c3F)cc2)ccn1 (some centres not stated) | > 64 | 131 |  |
| O=C1N[C@H]2[C@H](CS[C@H]2CCCCCc2cn(C(c3ccc(C(=O)NCCc4c[nH]cn4)cc3)c3cccc(F)c3)nn2)N1 (some centres not stated) |  |  | Ki [3]: 6.01 nM; MIC (Staphylococcus aureus [4]): 1 µg/mL (≈ 1.66 µM) |
| O=C1N[C@H]2[C@H](CS[C@H]2CCCCCc2cn(C(c3ccc(C(=O)NCCCc4c[nH]cn4)cc3)c3cccc(F)c3)nn2)N1 (some centres not stated) | 32 (≈ 51.9 µM) | 181 |  |
| O=C1N[C@H]2[C@H](CS[C@H]2CCCCCc2cn(C(c3ccc(C(=O)NCc4ccccc4)cc3)c3cccc(F)c3)nn2)N1 (some centres not stated) | > 64 | 867 |  |

The next lines start with results.

| MIC (Staphylococcus aureus [6]) [µg/mL] | Compound | Ki [5] [nM] | further results |
| --- | --- | --- | --- |
| > 64 | NC(=O)CCCCNC(=O)c1ccc(C(c2cccc(F)c2)n2cc(CCCCC[C@@H]3SC[C@@H]4NC(=O)N[C@@H]43)nn2)cc1 (some centres not stated) | 246 |  |
| > 64 | O=C1N[C@H]2[C@H](CS[C@H]2CCCCCc2cn(C(c3ccc(C(=O)NCc4ccncc4)cc3)c3cccc(F)c3)nn2)N1 (some centres not stated) | 130 |  |
| > 64 | O=C1N[C@H]2[C@H](CS[C@H]2CCCCCc2cn(C(c3ccc(C(=O)NCc4ccccn4)cc3)c3cccc(F)c3)nn2)N1 (some centres not stated) | 544 |  |
| 4 (≈ 6.74 µM) | NC(=O)CCCNC(=O)c1ccc(C(c2cccc(F)c2)n2cc(CCCCC[C@@H]3SC[C@@H]4NC(=O)N[C@@H]43)nn2)cc1 (some centres not stated) | 10 |  |
| > 64 | Nc1ccc(CNC(=O)c2ccc(C(c3cccc(F)c3)n3cc(CCCCC[C@@H]4SC[C@@H]5NC(=O)N[C@@H]54)nn3)cc2)cc1 (some centres not stated) | 63 |  |
| > 64 | O=C1N[C@H]2[C@H](CS[C@H]2CCCCCc2cn(C(c3ccc(C(=O)NCc4cccnc4)cc3)c3cccc(F)c3)nn2)N1 (some centres not stated) | 237 |  |
